Source: US20240335439A1, “USE OF AND METHOD FOR TELAPREVIR IN PREPARATION OF DRUG FOR TREATING AN ISCHEMIA/REPERFUSION INJURY AND CYTOPROTECTIVE DRUG” (THE THIRD XIANGYA HOSPITAL OF CENTRAL SOUTH UNIVERSITY, priority 2021, published 2024)

Legend:
[1] = system: H9c2 myocardial cells; experiment: Hypoxia/reoxygenation injury of H9c2 myocardial cells, LDH release; format: cell-based; settings: H9c2, hypoxia 8 h / reoxygenation 12 h; telaprevir 10 μM; vs Hypoxia, FIG. 4
Experimental: H9c2 myocardial cells were purchased from the Xiangya Cell Bank of Central South University.
Cell culture method: Following a conventional cell culture method, the above cells were cultured in a DMEM medium (containing 10% of fetal bovine serum). When the cells fused and grew to 80-90%, the cells were digested with a trypsin. After the cells shrank and became round and the intercellular space was obvious, the digestion was immediately terminated with a medium, the cells were dispersed and blown evenly into a single suspension state, passaged in bottles, and cultured in a 37° C. cell incubator containing 5% of CO2. […]
Cell injury was detected by an LDH release rate.
The measurement followed the operating instructions of a commercially available lactate dehydrogenase kit (Shanghai Beyotime Biotechnology Co., Ltd., China). […] The absorbance of the sample was measured at 490 nm. Calculation: LDH release rate of cells (%)=(absorbance of the drug treatment group-absorbance of the control group)/(absorbance of the maximum enzyme release group-absorbance of the control group)×100%. When the absorbance value of each group was calculated, the absorbance value of the background blank control group was first subtracted.

[2] = system: myocardial ischemia/reperfusion injury mouse models; experiment: Myocardial ischemia/reperfusion injury mouse model (LAD ligation 1 h, reperfusion 24 h); format: in vivo, C57BL/6J mice; settings: telaprevir 60 mg/kg after 30 minutes of ischemia, 24 h reperfusion
Experimental: Experimental animals: 7-week-old male C57BL/6J mice. The experimental animals were raised for one week in an environment with a temperature of 25° C., a relative humidity of 60%, free drinking water, and timed and quantified feeding, and then administered according to the requirements of each experimental group.
Method for building a myocardial ischemia/reperfusion mouse model: After an 8-week-old male C57BL/6J mouse was anesthetized by intraperitoneal injection with 0.3% pentobarbital sodium (20 mL/kg), a trachea cannula was inserted from the mouth and secured with a pressure-sensitive adhesive. […] The chest was opened, left anterior descending (LAD) branches were ligated with 8-0 sutures, myocardial infarction can be determined when the cardiac apex turned white, and the ligation was maintained for 1 hour. […] After staining, the staining solution was removed, the heart slices were washed with PBS once, immobilized with 4% paraformaldehyde for 24 hours, and then taken out, the staining situation was observed, photos were taken, and an ischemic area and an infarct area were measured by ImageJ software. […]
Blood and myocardial tissues were collected and relevant indicators were measured: myocardial infarct area in mice was measured and serum creatine kinase activity (CK activity) was detected. […]

CCC[C@H](NC(=O)[C@@H]1[C@H]2CCC[C@H]2CN1C(=O)[C@@H](NC(=O)[C@@H](NC(=O)c1cnccn1)C1CCCCC1)C(C)(C)C)C(=O)C(=O)NC1CC1 [telaprevir]
significantly reduce: release of LDH in the myocardial cell medium (LDH release rate) [1] | serum creatine kinase activity ([2]; ##P<0.01 vs I/R, FIG. 1B) | infarct area of myocardial tissues in mice (TTC staining, AOI/AOR) ([2]; vs I/R, FIG. 1A)
